Like-named read-outs stand apart in the source and are kept apart here. Starred links: 1 amine or outer side, 2 acyl side, 3 side chain; linkers in the order of their positions; H or OH if unused. Non-standard residues stand in square brackets, D forms with d. Residues, ends and D or L forms follow the SMILES beside them. ξ: configuration not given here. *: point of attachment. dBip = N[C@H](Cc1ccc(-c2ccccc2)cc1)C(=O)O; Oic = O=C(O)[C@@H]1C[C@@H]2CCCC[C@@H]2N1; Phe(4-Cl) = N[C@@H](Cc1ccc(Cl)cc1)C(=O)O; Phe(4-I) = N[C@@H](Cc1ccc(I)cc1)C(=O)O; γGlu = O=C(O)[C@H](CCC(=O)[*:2])N[*:1]; 2Nal = N[C@@H](Cc1ccc2ccccc2c1)C(=O)O; NMeR = CN[C@@H](CCCNC(=N)N)C(=O)O; Tridecanoyl = CCCCCCCCCCCCC(=O)*; hArg = N=C(N)NCCCC[C@H](N)C(=O)O; NMeL = CN[C@@H](CC(C)C)C(=O)O; Pip = O=C(O)[C@@H]1CCCCN1; Nle = CCCC[C@H](N)C(=O)O; ξαMeP = CC1(C(=O)O)CCCN1; ξβ3hV = CC(C)C(N)CC(=O)O; AEEA = NCCOCCOCC(=O)O
Key:
rat APJ receptor = target: T1, rat APJ receptor (Rattus norvegicus, UniProt Q9JHG3); experiment: [35S] GTPγS assay, rat APJ receptor; type: biochemical
T1 construct: expressed in transfected cells
T1 sequence (Q9JHG3 1-377): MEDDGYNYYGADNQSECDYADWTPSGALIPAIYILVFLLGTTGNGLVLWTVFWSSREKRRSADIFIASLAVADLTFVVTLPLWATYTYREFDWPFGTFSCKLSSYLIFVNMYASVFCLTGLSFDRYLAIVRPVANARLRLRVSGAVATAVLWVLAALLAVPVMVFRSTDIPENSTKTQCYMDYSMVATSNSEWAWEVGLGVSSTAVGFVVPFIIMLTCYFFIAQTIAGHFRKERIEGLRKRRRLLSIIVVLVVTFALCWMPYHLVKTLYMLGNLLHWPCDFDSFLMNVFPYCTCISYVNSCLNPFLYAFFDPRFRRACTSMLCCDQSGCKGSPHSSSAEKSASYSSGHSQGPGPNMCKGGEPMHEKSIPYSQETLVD
Procedure: The membranes were incubated with modified peptides in the assay buffer. […] Bound [^35S] GTPγS was separated from free radiolabel by filtration. The filter bound radioactivity was determined by liquid scintillation counting.

[1] = In vitro stability in rat plasma; type: in vitro ADME
Procedure: (§1) Apelin peptides were spiked into rat plasma, liver homogenate, and kidney homogenate, which were obtained from commercial sources, to a final concentration of 5 μM. The samples were then incubated at 37° C. over a period of 4 hr. […] In a typical experiment, an aliquot of 100 μL of sample was taken from the incubation vial, followed by addition of 300 μL of MeOH containing internal standard. The quenched sample was centrifuged at 5500 g for 15 min after 15 min vortex in room temperature. The supernatant was then analyzed by high resolution LC-MS. […] In vitro plasma, […], and kidney stability results are shown below in Table 14.

[2] = In vitro stability in rat liver homogenate; type: in vitro ADME; settings: tissue homogenate
Procedure: as §1

[3] = rat APJ receptor, read-out: EC50 Rat APJ Receptor

EC50 (rat APJ receptor; [3]) [nM]	EC50 (rat APJ receptor; Table 16, read-out: EC50 Rat APJ Receptor) [nM]	remaining at 4 h, 5 μM [1] [%]	remaining at 4 h, 5 μM [2] [%]	SMILES
14.8	–	–	–	CCCCCCCCCCCCC(=O)N[C@@H](CCC(=O)NCCOCCOCC(=O)NCCOCCOCC(=O)N[C@@H](CCCCNC(=N)N)C(=O)N[C@@H](CCCC)C(=O)N[C@@H](CCC(N)=O)C(=O)N[C@@H](CCCCNC(=N)N)C(=O)N1CCC[C@H]1C(=O)N[C@H](CCCNC(=N)N)C(=O)N(C)[C@@H](CC(C)C)C(=O)N[C@@H](CO)C(=O)N[C@@H](C)C(=O)N[C@@H](CCCCN)C(=O)NCC(=O)N1[C@H](C(=O)N[C@@H](Cc2ccc(I)cc2)C(=O)N2CCC[C@H]2C(=O)N[C@H](Cc2ccc(-c3ccccc3)cc2)C(=O)O)C[C@@H]2CCCC[C@@H]21)C(=O)O [compound 327] ({Tridecanoyl-γGlu-AEEA-AEEA}-[hArg][Nle]Q[hArg]P[dR][NMeL]SAKG[Oic][Phe(4-I)]P[dBip]-OH)
44.7	–	–	–	CCCCCCCCCCCCC(=O)N[C@@H](CCC(=O)NCCOCCOCC(=O)NCCOCCOCC(=O)N[C@@H](CCCCNC(=N)N)C(=O)N[C@H](CCCNC(=N)N)C(=O)N[C@@H](CCC(N)=O)C(=O)N[C@@H](CCCC)C(=O)N1CCC[C@H]1C(=O)N[C@H](CCCNC(=N)N)C(=O)N(C)[C@@H](CC(C)C)C(=O)N[C@@H](C)C(=O)N[C@@H](C)C(=O)N[C@@H](CCCCN)C(=O)NCC(=O)N1[C@H](C(=O)N[C@@H](Cc2ccc(I)cc2)C(=O)N2CCC[C@H]2C(=O)N[C@H](Cc2ccc(-c3ccccc3)cc2)C(=O)O)C[C@@H]2CCCC[C@@H]21)C(=O)O [compound 334] ({Tridecanoyl-γGlu-AEEA-AEEA}-[hArg][dR]Q[Nle]P[dR][NMeL]AAKG[Oic][Phe(4-I)]P[dBip]-OH)
0.116	–	–	–	CCCCCCCCCCCCC(=O)N[C@@H](CCC(=O)NCCOCCOCC(=O)NCCOCCOCC(=O)NCCOCCOCC(=O)NCCOCCOCC(=O)NCCOCCOCC(=O)NCCOCCOCC(=O)N[C@@H](CCC(N)=O)C(=O)N[C@@H](CCCNC(=N)N)C(=O)N1CCC[C@H]1C(=O)N(C)[C@@H](CCCNC(=N)N)C(=O)N[C@@H](CC(C)C)C(=O)N[C@@H](CO)C(=O)N[C@@H](Cc1c[nH]cn1)C(=O)N[C@@H](CCCCN)C(=O)NCC(=O)N1CCC[C@H]1C(=O)N[C@@H](CCCC)C(=O)N1CCC[C@H]1C(=O)N[C@@H](Cc1ccc(Cl)cc1)C(=O)O)C(=O)O [compound 398]
–	8.1	–	–	CCCCCCCCCCCCC(=O)N[C@@H](CCC(=O)NCCOCCOCC(=O)NCCOCCOCC(=O)N[C@@H](CCC(N)=O)C(=O)N[C@@H](CCCNC(=N)N)C(=O)N1CCC[C@H]1C(=O)N(C)[C@@H](CCCNC(=N)N)C(=O)N[C@@H](CC(C)C)C(=O)N[C@@H](CO)C(=O)N[C@@H](Cc1c[nH]cn1)C(=O)N[C@@H](CCCCN)C(=O)NCC(=O)N1CCC[C@H]1C(=O)N[C@@H](CCCC)C(=O)N[C@@H](Cc1ccc2ccccc2c1)C(=O)O)C(=O)O [compound 403] ({Tridecanoyl-γGlu-AEEA-AEEA}-QRP[NMeR]LSHKGP[Nle][2Nal]-OH)
–	–	> 90	< 1	CCCCCCCCCCCCC(=O)N[C@@H](CCC(=O)NCCOCCOCC(=O)NCCOCCOCC(=O)N[C@H](CCC(N)=O)C(=O)N[C@@H](CCCNC(=N)N)C(=O)N1CCCC1(C)C(=O)N[C@@H](CCCCNC(=N)N)C(=O)NC(CC(=O)N[C@@H](CO)C(=O)N[C@@H](Cc1c[nH]cn1)C(=O)N[C@@H](CCCCN)C(=O)NCC(=O)N1CCCC[C@H]1C(=O)N[C@@H](CCCC)C(=O)N[C@@H](Cc1ccc(Cl)cc1)C(=O)O)C(C)C)C(=O)O (stereo partly drawn) [compound 501] ({Tridecanoyl-γGlu-AEEA-AEEA}-[dQ]R[ξαMeP][hArg][ξβ3hV]SHKG[Pip][Nle][Phe(4-Cl)]-OH)
–	–	< 1	< 1	CCCC[C@H](NC(=O)[C@@H]1CCCN1C(=O)CNC(=O)[C@H](CCCCN)NC(=O)[C@H](Cc1c[nH]cn1)NC(=O)[C@H](CO)NC(=O)[C@H](CC(C)C)NC(=O)[C@H](CCCNC(=N)N)N(C)C(=O)[C@@H]1CCCN1C(=O)[C@H](CCCNC(=N)N)NC(=O)[C@H](CCC(N)=O)NC(=O)COCCOCCNC(=O)COCCOCCNC(=O)CC[C@H](NC(=O)CCCCCCC(=O)O)C(=O)O)C(=O)N1CCC[C@H]1C(=O)N[C@@H](Cc1ccc(Cl)cc1)C(=O)O [compound 508]
–	–	> 90	< 1	CCCCCCCCCCCCC(=O)N[C@@H](CCC(=O)NCCOCCOCC(=O)NCCOCCOCC(=O)N[C@H](CCC(N)=O)C(=O)N[C@@H](CCCNC(=N)N)C(=O)N1CCC[C@H]1C(=O)N(C)[C@@H](CCCNC(=N)N)C(=O)N[C@@](C)(CC(C)C)C(=O)N[C@@H](CO)C(=O)N[C@@H](Cc1c[nH]cn1)C(=O)N[C@@H](CCCCN)C(=O)NCC(=O)N1CCCC[C@H]1C(=O)N[C@@H](CCCC)C(=O)N1CCC[C@@]1(C)C(=O)N[C@@H](Cc1ccc(Cl)cc1)C(=O)O)C(=O)O [compound 555]

Source: US11807693B2 (priority 2014, dated 2023)
